Ki and IC50 data for 16 compounds are collected here from US7659289B2, “Hydroxyethylene-based β-secretase inhibitors and use thereof” (CoMentis, Inc., priority 2004, dated 2010).

The target in one experiment is memapsin 2 (Homo sapiens, UniProt P56817). Kind of experiment: Inhibition of memapsin 2 beta-secretase activity toward fluorogenic substrate FS-2. Format: biochemical. Conditions: pH 4, 37° C., 20 minutes pre-incubation, fluorogenic substrate FS-2, tight-binding model; read-out: M2 Ki.
Another experiment concerns Aβ production. Kind of experiment: Cellular Aβ IC50 determination (Aβ40 sandwich ELISA). It counts as cell-based. The note with it: Cricetulus griseus; Aβ40, Chinese hamster ovary cells over-expressing human APP695 with London and Swedish mutations, 24 h incubation. As for the experimental part:
The potency of compounds against memapsin 2 activity was determined in a cellular assay of Aβ production. […] Chinese hamster ovary cells that over-express human APP695 with the London and Swedish mutations were seeded in multi-well plates at 10% confluency. Compounds were dissolved in DMSO to concentrations near 1 mM, and diluted into culture media to a final concentration near 4 μM (final 0.4% DMSO). Compounds were diluted serially and applied to cells in multi-well plates 48 h after seeding. Incubation was continued in 5% CO2 at 37 degrees C. for 24 h. Aliquots were removed and assayed for Aβ40 content using a sandwich ELISA (BioSource International). Amount of Aβ40 over the range of concentration of compounds, relative to control incubations, were fit to a 4-parameter IC50 model.
For orientation: ELISA stands for enzyme-linked immunosorbent assay.

For another experiment, the target named is Cathepsin D (Homo sapiens, UniProt P07339). Kind of experiment: Inhibition of cathepsin D activity (MALDI-TOF, substrate peptide […]). Format: biochemical. Conditions: pH 4.1, 37 degrees C., read-out: Cath D Ki.
Sequence of Cathepsin D (P07339 65-412, species assumed): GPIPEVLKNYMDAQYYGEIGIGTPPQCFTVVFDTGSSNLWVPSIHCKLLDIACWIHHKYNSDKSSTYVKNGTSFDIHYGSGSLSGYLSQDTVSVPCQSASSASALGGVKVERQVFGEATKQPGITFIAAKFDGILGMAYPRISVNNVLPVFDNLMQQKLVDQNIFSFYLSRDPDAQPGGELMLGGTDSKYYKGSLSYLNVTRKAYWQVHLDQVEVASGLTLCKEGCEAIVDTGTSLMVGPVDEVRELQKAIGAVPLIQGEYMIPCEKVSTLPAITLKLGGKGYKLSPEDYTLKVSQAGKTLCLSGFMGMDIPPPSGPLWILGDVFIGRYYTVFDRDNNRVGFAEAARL

Sequence of memapsin 2 (P56817 46-501): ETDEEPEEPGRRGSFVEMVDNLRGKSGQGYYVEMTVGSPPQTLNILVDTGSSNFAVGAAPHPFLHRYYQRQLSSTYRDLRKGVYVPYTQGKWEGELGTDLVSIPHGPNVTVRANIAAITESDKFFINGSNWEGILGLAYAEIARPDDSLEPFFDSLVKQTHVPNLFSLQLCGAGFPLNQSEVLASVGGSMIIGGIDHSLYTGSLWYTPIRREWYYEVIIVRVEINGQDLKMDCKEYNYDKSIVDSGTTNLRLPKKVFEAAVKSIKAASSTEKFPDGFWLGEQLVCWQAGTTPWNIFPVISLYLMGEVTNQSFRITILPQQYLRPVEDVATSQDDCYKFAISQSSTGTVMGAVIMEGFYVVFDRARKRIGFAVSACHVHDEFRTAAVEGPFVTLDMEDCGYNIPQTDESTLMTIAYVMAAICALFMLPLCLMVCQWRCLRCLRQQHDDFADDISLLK
Protocol for Cathepsin D: After equilibration at 37 degrees C., the reactions were initiated by the addition of an aliquot of memapsin 2. Aliquots were removed at time intervals, and combined with an equal volume of MALDI-TOF matrix (α-hydroxycinnamic acid in acetone, 20 mg/ml) and immediately spotted in duplicate onto a stainless-steel MALDI sample plate. MALDI-TOF mass spectrometry was performed on a PE Biosystems Voyager DE instrument at the Molecular Biology Resource Center on campus. The instrument was operated at 25,000 accelerating volts in positive mode with a 150 ns delay. Ions with a mass-to-charge ratio (m/z) were detected in the range of 650-2000 atomic mass units. Data was analyzed by the Voyager Data Explorer module to obtain ion intensity data for mass species of substrates and corresponding products in a given mixture. Relative product formation was calculated as the ratio of signal intensity of the product to the sum of signal intensities of both product and the corresponding substrate. Relative product formed per unit time was obtained from non-linear regression analysis of the data representing the initial 15% formation of product using the model: 1−e^−kT,
where k is the relative hydrolytic rate constant and T is time in seconds. Initial rates were expressed relative to uninhibited controls and fit to a tight-binding model of competitive inhibition as above.
Protocol for memapsin 2: Potency of compounds were determined by measurement of their inhibition of memapsin 2 activity toward a fluorescent substrate. […] Briefly, assays were performed at pH 4, 37° C., by pre-incubation of memapsin 2 enzyme with compound for 20 minutes. Activity measure was initiated by addition of a fluorogenic substrate FS-2 (Bachem Americas, Torrance, Calif.). Fluorescent signal increase over time was measured as a rate of hydrolysis of the peptide substrate.

With `CC[C@@H](Cc1nc(C)cs1)C(=O)N[C@@H](CN(C)OC)C(=O)N[C@@H](CC(C)C)[C@@H](O)C[C@@H](C)C(=O)N[C@H](C(=O)NCC(C)C)C(C)C` [(2R,4S,5S)-4-hydroxy-N-((S)-1-(isobutylamino)-3-methyl-1-oxobutan-2-yl)-5-((S)-3-(methoxy(methyl)amino)-2-((S)-2-((4-methylthiazol-2-yl)methyl)butanamido)propanamido)-2,7-dimethyloctanamide], the Ki (usually the equilibrium dissociation constant of an inhibitor or competing ligand from its target) at memapsin 2 was in the range of 100 to 600 nM. Besides, in the experiment on Aβ production, the IC50 (in general, the concentration that gives 50% inhibition) was over 100000 nM.

For the compound `Cc1cc(C)n(CC(N=[N+]=[N-])C(=O)N[C@@H](CNC(=O)OC(C)(C)C)C(=O)N[C@@H](CC(C)C)[C@@H](O)C[C@@H](C)C(=O)N[C@H](C(=O)NCC(C)C)C(C)C)n1` (stereo partly drawn) [tert-butyl (2S)-2-(2-azido-3-(3,5-dimethyl-1H-pyrazol-1-yl)propanamido)-3-((4S,5S,7R)-5-hydroxy-8-((S)-1-(isobutylamino)-3-methyl-1-oxobutan-2-ylamino)-2,7-dimethyl-8-oxooctan-4-ylamino)-3-oxopropylcarbamate], the Ki was 100 to 600 nM at memapsin 2 and under 100 nM on Cathepsin D. The compound also gave an IC50 with Aβ production of 6000 to 100000 nM.

As for `CC[C@@H](Cc1nc(C)cs1)C(=O)N[C@@H](CNC(=O)OC(C)C)C(=O)N[C@@H](CC(C)C)[C@@H](O)C[C@@H](C)C(=O)N[C@H](C(=O)NCC(C)C)C(C)C` [isoproyl (S)-3-((4S,5S,7R)-5-hydroxy-8-((S)-1-(isobutylamino)-3-methyl-1-oxobutan-2-ylamino)-2,7-dimethyl-8-oxooctan-4-ylamino)-2-((S)-2-((4-methylthiazol-2-yl)methyl)butanamido)-3-oxopropylcarbamate], the Ki at memapsin 2 and at Cathepsin D was under 100 nM in each case. In the experiment on Aβ production, the IC50 is under 6000 nM.

As to `Cc1cc(C)n(CC(N)C(=O)N[C@@H](CNC(=O)OC(C)(C)C)C(=O)N[C@@H](CC(C)C)[C@@H](O)C[C@@H](C)C(=O)N[C@H](C(=O)NCC(C)C)C(C)C)n1` (stereo partly drawn) [tert-butyl (2S)-2-(2-amino-3-(3,5-dimethyl-1H-pyrazol-1-yl)propanamido)-3-((4S,5S,7R)-5-hydroxy-8-((S)-1-(isobutylamino)-3-methyl-1-oxobutan-2-ylamino)-2,7-dimethyl-8-oxooctan-4-ylamino)-3-oxopropylcarbamate], the inhibitory constant (Ki) on memapsin 2 and at Cathepsin D was 100 to 600 nM in each case. The compound also returned an IC50 in the experiment with Aβ production of over 100000 nM.

Consider `COCCOC(=O)NC[C@H](NC(=O)[C@@H](C)Cc1nc(C)cs1)C(=O)N[C@@H](CC(C)C)[C@@H](O)C[C@@H](C)C(=O)N[C@H](C(=O)NCC(C)C)C(C)C` [2-methoxyethyl (S)-3-((4S,5S,7R)-5-hydroxy-8-((S)-1-(isobutylamino)-3-methyl-1-oxobutan-2-ylamino)-2,7-dimethyl-8-oxooctan-4-ylamino)-2-((S)-2-methyl-3-(4-methylthiazol-2-yl)propanamido)-3-oxopropylcarbamate], for which the Ki on memapsin 2 and on Cathepsin D was under 100 nM in each case. The compound further had an IC50 in the experiment on Aβ production of under 6000 nM.

Turning to `Cc1csc(C[C@H](C)C(=O)N[C@@H](CNC(=O)OC(C)(C)C)C(=O)N[C@@H](Cc2cc(F)cc(F)c2)[C@@H](O)C[C@@H](C)C(=O)N[C@H](C(=O)NCC(C)C)C(C)C)n1` [tert-butyl (S)-3-((2S,3S,5R)-1-(3,5-difluorophenyl)-3-hydroxy-6-((S)-1-(isobutylamino)-3-methyl-1-oxobutan-2-ylamino)-5-methyl-6-oxohexan-2-ylamino)-2-((S)-2-methyl-3-(4-methylthiazol-2-yl)propanamido)-3-oxopropylcarbamate], the inhibition constant (Ki) on memapsin 2 was under 100 nM. The same compound returned an IC50 in the experiment with Aβ production of 6000 to 100000 nM.

For `CC[C@@H](Cn1nc(C)cc1C)C(=O)N[C@@H](CNC(=O)OC(C)(C)C)C(=O)N[C@@H](CC(C)C)[C@@H](O)C[C@@H](C)C(=O)N[C@H](C(=O)NCc1ccccn1)C(C)C` [tert-butyl (S)-2-((S)-2-((3,5-dimethyl-1H-pyrazol-1-yl)methyl)butanamido)-3-((4S,5S,7R)-5-hydroxy-2,7-dimethyl-8-((S)-3-methyl-1-oxo-1-(pyridin-2-ylmethylamino)butan-2-ylamino)-8-oxooctan-4-ylamino)-3-oxopropylcarbamate], the Ki at memapsin 2 was under 100 nM. In addition, in the experiment on Aβ production, the IC50 lay in the range of 6000 to 100000 nM.

Regarding `Cc1csc(C[C@H](C)C(=O)N[C@@H](CNC(=O)OC(C)(C)C)C(=O)N[C@@H](CC(C)C)[C@@H](O)C[C@@H](C)C(=O)N[C@H](C(=O)NN(C)C)C(C)C)n1` [tert-butyl (S)-3-((4S,5S,7R)-8-((S)-1-(2,2-dimethylhydrazinyl)-3-methyl-1-oxobutan-2-ylamino)-5-hydroxy-2,7-dimethyl-8-oxooctan-4-ylamino)-2-((S)-2-methyl-3-(4-methylthiazol-2-yl)propanamido)-3-oxopropylcarbamate], the inhibition constant Ki on memapsin 2 was under 100 nM; on Cathepsin D, 100 to 600 nM. This compound also registered an IC50 in the experiment on Aβ production of under 6000 nM.

As to `Cc1nc(COC(=O)N[C@@H](CC(=O)NCc2ccncc2)C(=O)N[C@@H](CC(C)C)[C@@H](O)C[C@@H](C)C(=O)N[C@H](C(=O)NCC(C)C)C(C)C)c(C)o1` [(2,5-dimethyloxazol-4-yl)methyl (5S,8S,9S,11R,14S)-9-hydroxy-8-isobutyl-14-isopropyl-11,18-dimethyl-3,6,12,15-tetraoxo-1-(pyridin-4-yl)-2,7,13,16-tetraazanonadecan-5-ylcarbamate], the results for the Ki at memapsin 2 and on Cathepsin D were 100 to 600 nM and under 100 nM, respectively.

With `CC[C@@H](Cn1nc(C)cc1C)C(=O)N[C@@H](CNC(=O)OC(C)(C)C)C(=O)N[C@@H](CC(C)C)[C@@H](O)C[C@@H](C)C(=O)N[C@H](C(=O)NCc1ccncc1)C(C)C` [tert-butyl (S)-2-((S)-2-((3,5-dimethyl-1H-pyrazol-1-yl)methyl)butanamido)-3-((4S,5S,7R)-5-hydroxy-2,7-dimethyl-8-((S)-3-methyl-1-oxo-1-(pyridin-4-ylmethylamino)butan-2-ylamino)-8-oxooctan-4-ylamino)-3-oxopropylcarbamate], the Ki on memapsin 2 is under 100 nM. Also, in the experiment with Aβ production, the IC50 was under 6000 nM.

On to `Cc1csc(C[C@H](C)C(=O)N[C@@H](CC(=O)O)C(=O)N[C@@H](CC(C)C)[C@@H](O)C[C@@H](C)C(=O)N[C@H](C(=O)NCC(C)C)C(C)C)n1` [(S)-4-((4S,5S,7R)-5-hydroxy-8-((S)-1-(isobutylamino)-3-methyl-1-oxobutan-2-ylamino)-2,7-dimethyl-8-oxooctan-4-ylamino)-3-((S)-2-methyl-3-(4-methylthiazol-2-yl)propanamido)-4-oxobutanoic acid], for which the Ki at memapsin 2 and at Cathepsin D was 100 to 600 nM throughout.

Turning to `CC(=O)NC[C@H](NC(=O)OCc1nc(C)cs1)C(=O)N[C@@H](CC(C)C)[C@@H](O)C[C@@H](C)C(=O)N[C@H](C(=O)NCC(C)C)C(C)C` [(4-methylthiazol-2-yl)methyl (5S,8S,9S,11R,14S)-9-hydroxy-8-isobutyl-14-isopropyl-11,18-dimethyl-2,6,12,15-tetraoxo-3,7,13,16-tetraazanonadecan-5-yicarbamate], the Ki at memapsin 2 and at Cathepsin D was 100 to 600 nM each time.

Turning to `COCO[C@@H](Cn1nc(C)cc1C)C(=O)N[C@@H](CNC(=O)OC(C)(C)C)C(=O)N[C@@H](CC(C)C)[C@@H](O)C[C@@H](C)C(=O)N[C@H](C(=O)NCC(C)C)C(C)C` [tert-butyl (S)-2-((S)-3-(3,5-dimethyl-1H-pyrazol-1-yl)-2-(methoxymethoxy)propanamido)-3-((4S,5S,7R)-5-hydroxy-8-((S)-1-(isobutylamino)-3-methyl-1-oxobutan-2-ylamino)-2,7-dimethyl-8-oxooctan-4-ylamino)-3-oxopropylcarbamate], the inhibition constant Ki was 100 to 600 nM on memapsin 2 and under 100 nM on Cathepsin D.

`Cc1nc(COC(=O)N[C@@H](CC(=O)OCc2ccccc2)C(=O)N[C@@H](CC(C)C)[C@@H](O)C[C@@H](C)C(=O)N[C@H](C(=O)NCC(C)C)C(C)C)c(C)o1` [(S)-benzyl 3-(((2,5-dimethyloxazol-4-yl)methoxy)carbonylamino)-4-((4S,5S,7R)-5-hydroxy-8-((S)-1-(isobutylamino)-3-methyl-1-oxobutan-2-ylamino)2,7-dimethyl-8-oxooctan-4-ylamino)-4-oxobutanoate]: the Ki on memapsin 2 and at Cathepsin D was under 100 nM each time.

Turning to `Cc1csc(COC(=O)N[C@@H](CC(N)=O)C(=O)N[C@@H](CC(C)C)[C@@H](O)C[C@@H](C)C(=O)N[C@H](C(=O)NCC(C)C)C(C)C)n1` [(4-methylthiazol-2-yl)methyl (S)-4-amino-1-((4S,5S,7R)-5-hydroxy-8-((S)-1-(isobutylamino)-3-methyl-1-oxobutan2-ylamino)-2,7-dimethyl-8-oxooctan-4-ylamino)-1,4-dioxobutan-2-ylcarbamate], the Ki at memapsin 2 is 100 to 600 nM; at Cathepsin D, over 600 nM.

In the case of `Cc1csc(C[C@H](C)C(=O)N[C@@H](CN(C)S(C)(=O)=O)C(=O)N[C@@H](CC(C)C)[C@@H](O)C[C@@H](C)C(=O)N[C@H](C(=O)NCC(C)C)C(C)C)n1` [(2R,4S,5S)-4-hydroxy-N-((S)-1-(isobutylamino)-3-methyl-1-oxobutan-2-yl)-2,7-dimethyl-5-((S)-2-((S)-2-methyl-3-(4-methylthiazol-2-yl)propanamido)-3-(N-methylmethylsulfonamido)propanamido)octanamide], the Ki on memapsin 2 lay in the range of 100 to 600 nM. In the experiment on Aβ production, this compound yielded an IC50 of 6000 to 100000 nM.
